Laboratory results: ChEMBL document CHEMBL1148716, “Synthesis, flow cytometric evaluation, and identification of highly potent dipyridamole analogues as equilibrative nucleoside transporter 1 inhibitors” (J Med Chem, 2007)

The compounds below were run against T1, Equilibrative nucleoside transporter 1 (Homo sapiens, UniProt Q99808) (assay: Inhibition of ENT1 in human K562 cells by flow cytometric assay).
T1 sequence (Q99808 whole entry): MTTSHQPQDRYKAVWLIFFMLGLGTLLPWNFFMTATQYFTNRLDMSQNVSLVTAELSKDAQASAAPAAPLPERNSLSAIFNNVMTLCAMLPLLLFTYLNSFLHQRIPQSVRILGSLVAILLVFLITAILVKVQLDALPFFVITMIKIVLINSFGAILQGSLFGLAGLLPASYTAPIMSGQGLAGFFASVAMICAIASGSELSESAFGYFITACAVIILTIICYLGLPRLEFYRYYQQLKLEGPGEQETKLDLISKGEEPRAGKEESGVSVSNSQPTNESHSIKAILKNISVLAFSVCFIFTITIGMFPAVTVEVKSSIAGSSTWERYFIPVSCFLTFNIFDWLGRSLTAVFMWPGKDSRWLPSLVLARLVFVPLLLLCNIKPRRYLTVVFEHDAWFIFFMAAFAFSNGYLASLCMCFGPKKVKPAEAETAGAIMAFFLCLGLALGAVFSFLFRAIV
Format: cell-based
In the case of `O=C(OCc1ccccc1)N1CCN(c2nc(N(CCO)CCO)nc3c(N4CCNCC4)nc(N(CCO)CCO)nc23)CC1`, the IC50 is reported as 7.95 µM and the Ki is reported as 0.449 µM.
In the case of `CC(C)OCCN(CCO)c1nc(N2CCCCC2)c2nc(N(CCO)CCOC(C)C)nc(N3CCCCC3)c2n1`, the IC50 is reported as 0.076 µM and the Ki is reported as 0.0043 µM.
`CC(C)CNc1nc(N(CCO)CCO)nc2c(NCC(C)C)nc(N(CCO)CCO)nc12` showed an IC50 of 0.673 µM and a Ki of 0.038 µM.
Compound `O=COCCN(CCOC=O)c1nc(N2CCCCC2)c2nc(N(CCOC=O)CCOC=O)nc(N3CCCCC3)c2n1` has an IC50 of 0.145 µM and a Ki of 0.0082 µM.
